Results reported in patent publication US8563730B2, “Pyrazole and fused pyrazole glucokinase activators” (Takeda San Diego, Inc., priority 2008, dated 2013).

Target: T1, GK (glucokinase, residues 12-465) (Homo sapiens, UniProt P35557)
T1 construct: I.D. No. 1 corresponds to residues 12-465 of glucokinase; made in house; host or cells: DH10b-T1r E. coli
T1 sequence (P35557 with tags, fused parts or gaps isoform P35557-2): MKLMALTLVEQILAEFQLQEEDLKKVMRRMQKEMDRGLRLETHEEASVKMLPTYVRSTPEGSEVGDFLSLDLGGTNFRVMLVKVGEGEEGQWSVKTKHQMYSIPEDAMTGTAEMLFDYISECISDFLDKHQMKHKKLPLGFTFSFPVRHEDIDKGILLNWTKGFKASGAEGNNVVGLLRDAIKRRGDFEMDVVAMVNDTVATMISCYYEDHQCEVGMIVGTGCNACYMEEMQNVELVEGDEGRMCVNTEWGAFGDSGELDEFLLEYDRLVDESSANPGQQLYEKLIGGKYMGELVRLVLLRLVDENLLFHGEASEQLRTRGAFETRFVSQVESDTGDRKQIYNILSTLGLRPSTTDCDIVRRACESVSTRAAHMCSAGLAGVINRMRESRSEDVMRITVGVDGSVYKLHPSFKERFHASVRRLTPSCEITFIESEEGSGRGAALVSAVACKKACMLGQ
Test: enzymatic glucokinase activity assay (ATP consumption, KinaseGlo luminescence)
Format: biochemical
Details: 5 μM ATP, 5 mM Glucose, reported as bins; for EC50: Kact = concentration that displays 50% of the maximal increase in GK activity, 60 min, room temperature, read-out: pKact; for Emax: calculated maximal gain in GK enzyme activity at a saturating concentration of the compound, read-out: % ACTmax
Source text: The activity of compounds as glucokinase activators may be assayed in vitro, in vivo or in a cell line. Provided below is an enzymatic glucokinase activity assay.
Purified glucokinase may be obtained as follows. […] SEQ.
The expression of recombinant glucokinase protein may be carried out by transformation and growth of DH10b-T1r E. coli cells incorporating the (pFLAG-CTC) plasmid in LB media. Protein expression can be induced in this system by the addition of IPTG to the culture medium.
Recombinant protein may be isolated from cellular extracts by passage over Sepharose Q Fast Flow resin (Pharmacia). This partially purified GK extract may then be further purified by a second passage over Poros HQ10 (Applied Biosystems). The purity of GK may be determined on denaturing SDS-PAGE gel. Purified GK may then be concentrated to a final concentration of 20.0 mg/ml. After flash freezing in liquid nitrogen, the proteins can be stored at −78° C. in a buffer containing 25 mM TRIS-HCl pH 7.6, 50 mM NaCl, and 0.5 mM TCEP.
The activation properties of compounds for GK may be determined using a black 384-well-plate format under the following reaction conditions: 25 mM Hepes pH 7.2, 25 mM NaCl, 10 mM MgCl2, 0.01% Brij35, 1 mM DTT, 5 μM ATP, 5 mM Glucose 2% DMSO. The amount of ATP consumed may be determined quantitatively by addition of equal volume of luciferase reagent (luciferase+beetle luciferin—KinaseGlo Luminescent Kinase Assay kit from Promega). The luminescence intensity may be measured by using the Analyst HT from LJL Biosystems.
The reaction mixture may then be incubated at room temperature for 60 min, and quenched and developed by addition of 10 μL of luciferase reagent. Luminescence intensities of the resulting reaction mixtures may be measured after a 10 min incubation at room temperature. The luminescence intensity may be measured by using the Analyst HT from LJL Biosystems.
pKact and % ACTmax values may be calculated by non-linear curve fitting of the compound concentrations and luminescence intensities to a standard inhibition/activation equation.

Compound: COc1ccc2nc(NC(=O)C(CC3CCOCC3)n3cc(S(=O)(=O)C4CC4)cn3)sc2n1 (stereo not shown) [Compound 24, 2-(4-(cyclopropylsulfonyl)-1H-pyrazol-1-yl)-N-(5-methoxythiazolo[5,4-b]pyridin-2-yl)-3-(tetrahydro-2H-pyran-4-yl)propanamide]
- EC50: ≥ 15.8 µM
- Emax: ≤ 90%

Compound: COc1ccc2nc(NC(=O)[C@@H](CC3CCOCC3)n3cc(S(=O)(=O)C4CC4)cn3)sc2n1 [Compound 25, (R)-2-(4-(cyclopropylsulfonyl)-1H-pyrazol-1-yl)-N-(5-methoxythiazolo[5,4-b]pyridin-2-yl)-3-(tetrahydro-2H-pyran-4-yl)propanamide]
- EC50: ≥ 15.8 µM
- Emax: ≤ 90%

Compound: COc1ccc2nc(NC(=O)[C@H](CC3CCOCC3)n3cc(S(=O)(=O)C4CC4)cn3)sc2n1 [Compound 26, (S)-2-(4-(cyclopropylsulfonyl)-1H-pyrazol-1-yl)-N-(5-methoxythiazolo[5,4-b]pyridin-2-yl)-3-(tetrahydro-2H-pyran-4-yl)propanamide]
- EC50: ≥ 15.8 µM
- Emax: ≤ 90%

Compound: Cc1nn(C(CC2CCOCC2)C(=O)Nc2ncc(F)s2)c(C)c1S(=O)(=O)C1CC1 (stereo not shown) [Compound 27, 2-(4-(cyclopropylsulfonyl)-3,5-dimethyl-1H-pyrazol-1-yl)-N-(5-fluorothiazol-2-yl)-3-(tetrahydro-2H-pyran-4-yl)propanamide]
- EC50: 1.58 to 3.16 µM
- Emax: ≤ 90%

Compound: O=C(Nc1ncc(F)s1)C(CC1CCOCC1)n1cc(S(=O)(=O)C2CC2)cn1 (stereo not shown) [Compound 28, 2-(4-(cyclopropylsulfonyl)-1H-pyrazol-1-yl)-N-(5-fluorothiazol-2-yl)-3-(tetrahydro-2H-pyran-4-yl)propanamide]
- EC50: 3.98 to 12.6 µM
- Emax: ≥ 111%

Compound: O=C(Nc1ncc(F)s1)C(CC1CCOCC1)n1cc(S(=O)(=O)c2ccc(Cl)cc2)cn1 (stereo not shown) [Compound 29, 2-(4-(4-chlorophenylsulfonyl)-1H-pyrazol-1-yl)-N-(5-fluorothiazol-2-yl)-3-(tetrahydro-2H-pyran-4-yl)propanamide]
- EC50: 0.398 to 1.26 µM
- Emax: ≥ 111%

Compound: COc1ccc2nc(NC(=O)C(CC3CCOCC3)n3cc(S(=O)(=O)c4ccc(Cl)cc4)cn3)sc2n1 (stereo not shown) [Compound 30, 2-(4-(4-chlorophenylsulfonyl)-1H-pyrazol-1-yl)-N-(5-methoxythiazolo[5,4-b]pyridin-2-yl)-3-(tetrahydro-2H-pyran-4-yl)propanamide]
- EC50: 3.98 to 12.6 µM
- Emax: ≤ 90%

Compound: O=C(Nc1ncc(F)s1)[C@@H](CC1CCOCC1)n1cc(S(=O)(=O)C2CC2)cn1 [Compound 31, (R)-2-(4-(cyclopropylsulfonyl)-1H-pyrazol-1-yl)-N-(5-fluorothiazol-2-yl)-3-(tetrahydro-2H-pyran-4-yl)propanamide]
- EC50: ≥ 15.8 µM
- Emax: ≤ 90%

Compound: O=C(Nc1ncc(F)s1)[C@H](CC1CCOCC1)n1cc(S(=O)(=O)C2CC2)cn1 [Compound 32, (S)-2-(4-(cyclopropylsulfonyl)-1H-pyrazol-1-yl)-N-(5-fluorothiazol-2-yl)-3-(tetrahydro-2H-pyran-4-yl)propanamide]
- EC50: 3.98 to 12.6 µM
- Emax: 101 to 105%

Compound: O=C(Nc1ncc(Cl)s1)C(CC1CCCC1)n1cc(S(=O)(=O)C2CC2)cn1 (stereo not shown) [Compound 33, N-(5-chlorothiazol-2-yl)-3-cyclopentyl-2-(4-(cyclopropylsulfonyl)-1H-pyrazol-1-yl)propanamide]
- EC50: 1.58 to 3.16 µM
- Emax: ≥ 111%

Compound: O=C(Nc1ncc(F)s1)C(CC1CCCC1)n1cc(S(=O)(=O)C2CC2)cn1 (stereo not shown) [Compound 34, 3-cyclopentyl-2-(4-(cyclopropylsulfonyl)-1H-pyrazol-1-yl)-N-(5-fluorothiazol-2-yl)propanamide]
- EC50: 1.58 to 3.16 µM
- Emax: ≥ 111%

Compound: O=C(Nc1ncc(F)s1)[C@@H](CC1CCCC1)n1cc(S(=O)(=O)C2CC2)cn1 [Compound 35, (R)-3-cyclopentyl-2-(4-(cyclopropylsulfonyl)-1H-pyrazol-1-yl)-N-(5-fluorothiazol-2-yl)propanamide]
- EC50: ≥ 15.8 µM
- Emax: ≤ 90%

Compound: O=C(Nc1ncc(F)s1)[C@H](CC1CCCC1)n1cc(S(=O)(=O)C2CC2)cn1 [Compound 36, (S)-3-cyclopentyl-2-(4-(cyclopropylsulfonyl)-1H-pyrazol-1-yl)-N-(5-fluorothiazol-2-yl)propanamide]
- EC50: 1.58 to 3.16 µM
- Emax: ≥ 111%

Compound: O=C(Nc1ncc(Cl)s1)[C@@H](CC1CCCC1)n1cc(S(=O)(=O)C2CC2)cn1 [Compound 38, (R)-N-(5-chlorothiazol-2-yl)-3-cyclopentyl-2-(4-(cyclopropylsulfonyl)-1H-pyrazol-1-yl)propanamide]
- EC50: ≥ 15.8 µM
- Emax: ≥ 111%

Compound: O=C(Nc1ncc(Cl)s1)[C@H](CC1CCCC1)n1cc(S(=O)(=O)C2CC2)cn1 [Compound 39, (S)-N-(5-chlorothiazol-2-yl)-3-cyclopentyl-2-(4-(cyclopropylsulfonyl)-1H-pyrazol-1-yl)propanamide]
- EC50: 1.58 to 3.16 µM
- Emax: ≥ 111%

Compound: O=C(Nc1ncc(Cl)s1)[C@@H](CC1CCOCC1)n1cc(S(=O)(=O)C2CC2)cn1 [Compound 40, (R)-N-(5-chlorothiazol-2-yl)-2-(4-(cyclopropylsulfonyl)-1H-pyrazol-1-yl)-3-(tetrahydro-2H-pyran-4-yl)propanamide]
- EC50: ≥ 15.8 µM
- Emax: ≤ 90%

Compound: CS(=O)(=O)c1cccc2c1cnn2C(CC1CCOCC1)C(=O)Nc1ncc(F)s1 (stereo not shown) [Compound 41, N-(5-fluorothiazol-2-yl)-2-(4-(methylsulfonyl)-1H-indazole-1-yl)-3-(tetrahydro-2H-pyran-4-yl)propanamide]
- EC50: 1.58 to 3.16 µM
- Emax: ≤ 90%

Compound: O=C(Nc1ncc(Cl)s1)[C@H](CC1CCOCC1)n1cc(S(=O)(=O)C2CC2)cn1 [Compound 42, (S)-N-(5-chlorothiazol-2-yl)-2-(4-(cyclopropylsulfonyl)-1H-pyrazol-1-yl)-3-(tetrahydro-2H-pyran-4-yl)propanamide]
- EC50: 1.58 to 3.16 µM
- Emax: ≥ 111%

Compound: O=C(Nc1ncc(F)s1)[C@@H](CC1CCOCC1)n1cc(S(=O)(=O)C2CCCC2)cn1 [Compound 43, (R)-2-(4-(cyclopentylsulfonyl)-1H-pyrazol-1-yl)-N-(5-fluorothiazol-2-yl)-3-(tetrahydro-2H-pyran-4-yl)propanamide]
- EC50: ≥ 15.8 µM
- Emax: ≤ 90%

Compound: O=C(Nc1ncc(F)s1)[C@H](CC1CCOCC1)n1cc(S(=O)(=O)C2CCCC2)cn1 [Compound 44, (S)-2-(4-(cyclopentylsulfonyl)-1H-pyrazol-1-yl)-N-(5-fluorothiazol-2-yl)-3-(tetrahydro-2H-pyran-4-yl)propanamide]
- EC50: 0.398 to 1.26 µM
- Emax: ≥ 111%

Compound: O=C(Nc1ccc(Cl)cn1)C(CC1CCOCC1)n1cc(S(=O)(=O)C2CC2)cn1 (stereo not shown) [Compound 45, N-(5-chloropyridin-2-yl)-2-(4-(cyclopropylsulfonyl)-1H-pyrazol-1-yl)-3-(tetrahydro-2H-pyran-4-yl)propanamide]
- EC50: 3.98 to 12.6 µM
- Emax: ≥ 111%

Compound: O=C(Nc1cnccn1)C(CC1CCOCC1)n1cc(S(=O)(=O)C2CC2)cn1 (stereo not shown) [Compound 46, 2-(4-(cyclopropylsulfonyl)-1H-pyrazol-1-yl)-N-(pyrazin-2-yl)-3-(tetrahydro-2H-pyran-4-yl)propanamide]
- EC50: ≥ 15.8 µM
- Emax: 101 to 105%

Compound: O=C(Nc1ncc(Cl)s1)[C@@H](CC1CCOCC1)n1ncc2cc(S(=O)(=O)C3CC3)ccc21 [Compound 47, (R)-N-(5-chlorothiazol-2-yl)-2-(5-(cyclopropylsulfonyl)-1H-indazol-1-yl)-3-(tetrahydro-2H-pyran-4-yl)propanamide]
- EC50: 3.98 to 12.6 µM
- Emax: ≥ 111%
